Experimental data from ChEMBL document CHEMBL3525898, “Pharmacogenomics of gemcitabine metabolism: functional analysis of genetic variants in cytidine deaminase and deoxycytidine kinase” (Drug Metab Dispos, 2013).

How the values were obtained:
Format in all cases: ADME
[1] = Drug metabolism assessed as […] incubated for 1 min in presence of human recombinant N-terminal His-tagged DCK Ile24Val mutant expressed in Escherichia coli BL21(DE3) cells by liquid chromatography-tandem mass spectrometry
[2] = Ratio of intrinsic clearance for human recombinant N-terminal His-tagged DCK Ile24Val mutant expressed in Escherichia coli BL21(DE3) cells to intrisic clerance for human recombinant N-terminal His-tagged wild type DCK expressed in Escherichia coli BL21(DE3) cells
[3] = Drug metabolism assessed as […] incubated for 1 min in presence of human recombinant N-terminal His-tagged DCK Ala119Gly mutant expressed in Escherichia coli BL21(DE3) cells by liquid chromatography-tandem mass spectrometry
[4] = Drug metabolism assessed as […] incubated for 1 min in presence of human recombinant N-terminal His-tagged DCK Pro122Ser mutant expressed in Escherichia coli BL21(DE3) cells by liquid chromatography-tandem mass spectrometry
[5] = Activity of human recombinant N-terminal His-tagged DCK Pro122Ser mutant expressed in Escherichia coli BL21(DE3) cells assessed as cytosine-beta-D-arabinofuranoside-5'-MP formation incubated for 3 mins by liquid chromatography-tandem mass spectrometry; conditions: 0.05 h
[6] = Activity of human recombinant N-terminal His-tagged DCK Ala119Gly mutant expressed in Escherichia coli BL21(DE3) cells assessed as cytosine-beta-D-arabinofuranoside-5'-MP formation incubated for 3 mins by liquid chromatography-tandem mass spectrometry; conditions: 0.05 h
[7] = Activity of human recombinant N-terminal His-tagged DCK Ile24Val mutant expressed in Escherichia coli BL21(DE3) cells assessed as cytosine-beta-D-arabinofuranoside-5'-MP formation incubated for 3 mins by liquid chromatography-tandem mass spectrometry; conditions: 0.05 h

Km [1] [µM] | Vmax [1] [nmol/min/mg] | Ratio [2] | Km [3] [µM] | Vmax [3] [nmol/min/mg] | Km [4] [µM] | Vmax [4] [nmol/min/mg] | Km [5] [µM] | Vmax [5] [nmol/min/mg] | Km [6] [µM] | Vmax [6] [nmol/min/mg] | Km [7] [µM] | Vmax [7] [nmol/min/mg] | Compound
1.52 | 1234 | 2 | 1.75 | 828.1 | 1.43 | 573.2 | – | – | – | – | – | – | Nc1ccn([C@@H]2O[C@H](CO)[C@@H](O)C2(F)F)c(=O)n1 [GEMCITABINE]
– | – | – | – | – | – | – | 1.56 | 264 | 2.54 | 580.3 | 2.45 | 599.4 | Nc1ccn([C@@H]2O[C@H](CO)[C@@H](O)[C@@H]2O)c(=O)n1 [CYTARABINE]
